Columns and labels:
[1] = system: patients with geographic atrophy (GA) secondary to age-related macular degeneration (AMD); experiment: DERBY Phase 3 study: GA lesion growth in study eye by fundus autofluorescence; format: in vivo, human; conditions: for reduction in GA lesion growth from baseline compared to sham: over 24 months; for reduction in lesion growth in the study eye versus the untreated study eye: bilateral GA; for reduction in lesion growth in the study eye versus the untreated study eye / percentage reduction versus sham pooled: 18 months
Source text: (§1) This Example describes 12-month results from two Phase 3 multi-center, randomized, double-masked, sham-controlled studies (“DERBY” and “OAKS”) to compare the efficacy and safety of intravitreal APL-2 (pegcetacoplan, also referred to as “Study Drug” in this Example) therapy with sham injections in patients with geographic atrophy (GA) secondary to age-related macular degeneration (AMD).
(§2) To participate in the studies, subjects must have been diagnosed with GA of the macula secondary to AMD in the study eye. At screening, male and female subjects were required to fulfill all of the following inclusion criteria to be eligible for participation in the study. If both eyes met the inclusion criteria, the eye with the worst normal luminance visual acuity at the screening visit was designated as the study eye. If both eyes had the same visual acuity, the right eye was selected as the study eye. Ocular-specific inclusion criteria applied to the study eye only, unless otherwise specified.
(§3) The design of the DERBY and OAKS studies are schematically depicted in FIG. 2. Each subject was assigned a unique screening number after signing the informed consent. Subjects who completed the study screening assessments and met all the eligibility criteria entered the study and were randomized on Day 1. As part of the screening process, the reading center evaluated FAF, OCT, Digital Color Fundus Photograph (DCFP), Near Infrared Reflectance (NIR), and fluorescein angiography (FA) to provide an objective assessment of subject eligibility. Subjects were randomized 2:2:1:1 to receive treatment with Study Drug monthly (PM), Study Drug every other month (PEOM), sham injection monthly (SM) or sham injection every other month (SEOM), respectively.
(§4) The Study Drug was pegcetacoplan (also referred to as “APL-2”) (see FIG. 1), which was provided for intravitreal injection at 15 mg/0.1 mL (150 mg/mL) as a sterile, isotonic solution of pegcetacoplan in acetate-buffer, pH 5.0, containing trehalose, supplied in stoppered glass vials.
(§5) The primary endpoint in the studies was the change from baseline to Month 12 in total area of GA lesion(s) in the study eye (in mm^2) based on Fundus Autofluorescence (FAF). Key secondary endpoints included change from baseline in the mean threshold sensitivity of all points (study eye) assessed by mesopic microperimetry at Month 24; change from baseline in monocular maximum reading speed (study eye), at Month 24 as assessed by MNRead or Radner reading charts (in select sites); change from baseline in mean FRI Index score (subject-level assessment) at Month 24; and change from baseline in NL-BCVA score (study eye) at Month 24 as assessed by Early Treatment Diabetic Retinopathy Study (ETDRS) chart. Additional secondary endpoints included change from baseline in LL-BCVA score (study eye) over time as assessed by ETDRS chart; change from baseline in the total area of GA lesion(s) in the study eye (in mm^2) as assessed by FAF over time other than Month 12; change from baseline in monocular critical print size (study eye), as assessed by MNRead or Radner reading charts (in select sites) over time; change from baseline in the NEI VFQ-25 distance activity subscale score (in select sites) (subject level assessment) over time; change from baseline in the number of scotomatous points assessed by mesopic microperimetry over time; and change from baseline in the mean threshold sensitivity within 500 microns outside the GA lesion, (perilesional points) assessed by mesopic microperimetry over time.
(§6) Two sham treatment arms (SM and SEOM) were pooled into a single control (Sham) group for analyses.
(§7) Subjects were analyzed in the treatment arm assigned at randomization.
(§8) Unless otherwise noted, hypothesis testing and estimation of treatment effects will be performed with a mixed effect model for repeated measure (MMRM) that includes data from all three treatment arms (PM, PEOM, and Sham). […]

[2] = system: patients with geographic atrophy (GA) secondary to age-related macular degeneration (AMD); experiment: DERBY and OAKS combined: GA lesion growth and visual function; format: in vivo, human; conditions: for reduction in GA lesion growth from baseline compared to sham: combined analysis (FIG. 30); for reduction in lesion growth, study eye vs untreated fellow eye: bilateral GA, 12 months (FIG. 7D); for reduction in foveal lesion growth vs pooled sham / reduction in extrafoveal GA lesion growth vs pooled sham: month 18; for reduction of GA lesion growth vs pooled sham: months 18-24
Source text: as §1, §2, §3, §4, §5, §6, §7, §8

[3] = post-hoc quartiles of GA lesion growth over 18 months (FIG. 27)

Question: Which results are given for “Poly(oxy-1,2-ethanediyl), α-hydro-ω-hydroxy-, 15,15′-diester with N-acetyl-L-isoleucyl-L-cysteinyl-L-valyl-1-methyl-L-tryptophyl-L-glutaminyl-L-α-aspartyl-L-tryptophylglycyl-L-alanyl-L-histidyl-L-arginyl-L-cysteinyl-L-threonyl-2-[2-(2-aminoethoxy) ethoxy]acetyl-N^6-carboxy-L-lysinamide cyclic (2->12)-(disulfide) [pegcetacoplan]”?
Answer: reduction of GA lesion growth versus sham ([1]; EOM, months 18-24, p=0.0002): 29%; reduction in GA lesion growth from baseline compared to sham ([1]; EOM, p 0.0030 nominal): 16%; reduction in lesion growth in the study eye versus the untreated study eye ([1]; every other month, p<0.0001): 16%; reduction in lesion growth in the study eye versus the untreated study eye ([1]; monthly, p=0.0053): 12%; reduction in GA lesion growth versus sham ([1]; distance >250 microns, every other month, p=0.0689): 19%; reduction in GA lesion growth versus sham ([1]; distance >250 microns, monthly, p=0.2691): 13%; reduction in GA lesion growth versus sham ([1]; distance ≤250 microns, every other month, p=0.0724): 12%; reduction in GA lesion growth versus sham ([1]; distance ≤250 microns, monthly, p=0.0490): 12%; percentage reduction versus sham pooled ([1]; every other month, >50 microns, p=0.0047): 24%; percentage reduction versus sham pooled ([1]; every other month, >100 microns, p=0.0022): 26%; percentage reduction versus sham pooled ([1]; every other month, >150 microns, p=0.0076): 24%; percentage reduction versus sham pooled ([1]; every other month, >200 microns, p 0.0229): 20%; reduction in GA lesion growth vs pooled sham ([1]; every other month, month 12, p=0.0750): 11%; reduction in GA lesion growth, covariate-adjusted post-hoc analysis ([1]; every other month, month 18, p=0.0023): 16%; reduction in extrafoveal GA lesion growth, covariate-adjusted ([1]; every other month, month 18, p=0.0035): 24%; reduction in extrafoveal GA lesion growth vs pooled sham ([1]; every other month, month 18, p=0.0075): 23%; reduction in GA lesion growth vs pooled sham ([1]; every other month, month 18, p=0.0332 nominal): 12%; reduction in foveal GA lesion growth, covariate-adjusted ([1]; every other month, month 18, p=0.1723): 9%; reduction in foveal GA lesion growth vs pooled sham ([1]; every other month, month 18, p=0.5538): 4%; reduction in GA lesion growth vs pooled sham ([1]; every other month, months 6-12 segment (FIG. 12A)): 16%; percentage reduction versus sham pooled ([1]; monthly, >50 microns, p=0.0433): 18%; percentage reduction versus sham pooled ([1]; monthly, >100 microns, p=0.0266): 20%; percentage reduction versus sham pooled ([1]; monthly, >150 microns, p 0.0468): 19%; percentage reduction versus sham pooled ([1]; monthly, >200 microns, p=0.0985): 16%; reduction in GA lesion growth vs pooled sham ([1]; monthly, month 12, p=0.0528): 12%; reduction in GA lesion growth vs pooled sham ([1]; monthly, month 18, p 0.0254 nominal): 13%; reduction in GA lesion growth, covariate-adjusted post-hoc analysis ([1]; monthly, month 18, p=0.0024): 16%; reduction in foveal GA lesion growth, covariate-adjusted ([1]; monthly, month 18, p=0.0280): 14%; reduction in extrafoveal GA lesion growth, covariate-adjusted ([1]; monthly, month 18, p=0.0380): 18%; reduction in extrafoveal GA lesion growth vs pooled sham ([1]; monthly, month 18, p=0.0606): 17%; reduction in foveal GA lesion growth vs pooled sham ([1]; monthly, month 18, p=0.2015): 9%; reduction in GA lesion growth vs pooled sham ([1]; monthly, months 6-12 segment (FIG. 12A)): 17%; reduction of GA lesion growth versus sham ([1]; monthly, months 18-24, p<0.0001): 36%; reduction in GA lesion growth from baseline compared to sham ([1]; monthly, p=0.0004 nominal): 19%; decrease of patients in Q4 (fast progressors), relative to sham [1, 3]: 33%; increase of patients in Q1 (slow progressors), relative to sham [1, 3]: 15%; reduction in GA lesion growth from baseline compared to sham ([2]; EOM, p<0.0001): 24%; reduction in GA lesion growth from baseline compared to sham ([2]; monthly, p<0.0001): 30%; key secondary endpoints measuring visual function, pegcetacoplan vs sham ([2]; combined, 24 months (FIG. 31, NL-BCVA)): no clinically meaningful difference; reduction in lesion growth, study eye vs untreated fellow eye ([2]; combined, every other month): 11%; reduction in lesion growth, study eye vs untreated fellow eye ([2]; combined, monthly): 16%; reduction in GA lesion growth vs pooled sham ([2]; combined, every other month, month 12, p<0.0012): 14%; reduction in foveal lesion growth vs pooled sham ([2]; combined, every other month, p 0.0069): 13%; reduction in extrafoveal GA lesion growth vs pooled sham ([2]; combined, every other month, p=0.0006): 21%; reduction in GA lesion growth vs pooled sham ([2]; combined, every other month, months 0-6 segment): 12%; reduction in GA lesion growth vs pooled sham ([2]; combined, every other month, months 12-18 segment): 17%; reduction of GA lesion growth vs pooled sham ([2]; combined, extrafoveal lesions, EOM): 28%; reduction in GA lesion growth vs pooled sham ([2]; combined, extrafoveal lesions, every other month, 12 months, p=0.0002): 23%; reduction in GA lesion growth vs pooled sham ([2]; combined, extrafoveal lesions, monthly, 12 months, p<0.0001): 26%; reduction of GA lesion growth vs pooled sham ([2]; combined, extrafoveal lesions, monthly): 28%; reduction of GA lesion growth vs pooled sham ([2]; combined, foveal lesions, EOM): 28%; reduction of GA lesion growth vs pooled sham ([2]; combined, foveal lesions, monthly): 34%; reduction in GA lesion growth vs pooled sham ([2]; combined, monthly, month 12, p<0.0001): 17%; reduction in extrafoveal GA lesion growth vs pooled sham ([2]; combined, monthly, p<0.0001): 26%; reduction in foveal lesion growth vs pooled sham ([2]; combined, monthly, p=0.0070): 13%; reduction in GA lesion growth vs pooled sham ([2]; combined, monthly, months 0-6 segment (FIG. 12B)): 13%; reduction in GA lesion growth vs pooled sham ([2]; combined, monthly, months 12-18 segment (FIG. 12B)): 21%

Reference: patent US20250000936A1, “TREATMENT OF GEOGRAPHIC ATROPHY” (Apellis Pharmaceuticals, Inc., priority 2021, published 2025)
